# Test results as given in paper PMC9965625, “Endocannabinoid 2-Arachidonoylglycerol Synthesis and Metabolism at Neuronal Nuclear Matrix Fractions Derived from Adult Rat Brain Cortex” (International Journal of Molecular Sciences, 2023).
# Molecular target: T1, α/β-hydrolase domain 12 protein (ABHD12) (Rattus norvegicus, UniProt Q6AYT7)
# T1 construct: native enzyme in nuclear matrix fraction of adult rat brain cortex
# T1 sequence (Q6AYT7 1-398): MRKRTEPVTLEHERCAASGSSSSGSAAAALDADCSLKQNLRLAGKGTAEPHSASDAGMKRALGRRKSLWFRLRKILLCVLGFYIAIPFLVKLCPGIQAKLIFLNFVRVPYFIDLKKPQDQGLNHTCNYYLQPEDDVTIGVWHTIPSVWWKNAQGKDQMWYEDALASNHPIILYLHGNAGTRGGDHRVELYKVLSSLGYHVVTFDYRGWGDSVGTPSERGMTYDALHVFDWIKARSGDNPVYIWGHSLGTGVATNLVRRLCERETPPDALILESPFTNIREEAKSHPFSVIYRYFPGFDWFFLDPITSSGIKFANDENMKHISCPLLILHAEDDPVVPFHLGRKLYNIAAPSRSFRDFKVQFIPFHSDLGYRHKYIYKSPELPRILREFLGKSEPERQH
# Experiment: LC/MS/MS of arachidonic acid formed from […] exogenous 2-AG in nuclear matrix fraction, blocked by MAFP
# Format: cell-based
smiles,measurement,value
CCCCC/C=C\C/C=C\C/C=C\C/C=C\CCCC(=O)OC(CO)CO [2-AG],LC/MS/MS of arachidonic acid formed from 10 μM exogenous 2-AG in nuclear matrix,ABHD12 is the main responsible for the hydrolysis of 2-AG in the nuclear matrix
